PMC3961306, “Comparison of the Cancer Gene Targeting and Biochemical Selectivities of All Targeted Kinase Inhibitors Approved for Clinical Use” (PLoS ONE, 2014)

How the values were obtained:
Test in all cases: Kinase profiling in a biochemical assay panel (mobility shift assays and ELISA), %-inhibition at 1 μM; selectivity entropy
[1] = molecular target: panel of more than 300 wild-type and mutant kinases (313 kinase panel) (Homo sapiens, UniProt P10721)
[2] = molecular target: panel of more than 300 wild-type and mutant kinases (313 kinase panel) (Homo sapiens, UniProt P17252)
[3] = molecular target: T1, panel of more than 300 wild-type and mutant kinases (313 kinase panel) (Homo sapiens, UniProt P29322)
T1 sequence (P29322 28-1005): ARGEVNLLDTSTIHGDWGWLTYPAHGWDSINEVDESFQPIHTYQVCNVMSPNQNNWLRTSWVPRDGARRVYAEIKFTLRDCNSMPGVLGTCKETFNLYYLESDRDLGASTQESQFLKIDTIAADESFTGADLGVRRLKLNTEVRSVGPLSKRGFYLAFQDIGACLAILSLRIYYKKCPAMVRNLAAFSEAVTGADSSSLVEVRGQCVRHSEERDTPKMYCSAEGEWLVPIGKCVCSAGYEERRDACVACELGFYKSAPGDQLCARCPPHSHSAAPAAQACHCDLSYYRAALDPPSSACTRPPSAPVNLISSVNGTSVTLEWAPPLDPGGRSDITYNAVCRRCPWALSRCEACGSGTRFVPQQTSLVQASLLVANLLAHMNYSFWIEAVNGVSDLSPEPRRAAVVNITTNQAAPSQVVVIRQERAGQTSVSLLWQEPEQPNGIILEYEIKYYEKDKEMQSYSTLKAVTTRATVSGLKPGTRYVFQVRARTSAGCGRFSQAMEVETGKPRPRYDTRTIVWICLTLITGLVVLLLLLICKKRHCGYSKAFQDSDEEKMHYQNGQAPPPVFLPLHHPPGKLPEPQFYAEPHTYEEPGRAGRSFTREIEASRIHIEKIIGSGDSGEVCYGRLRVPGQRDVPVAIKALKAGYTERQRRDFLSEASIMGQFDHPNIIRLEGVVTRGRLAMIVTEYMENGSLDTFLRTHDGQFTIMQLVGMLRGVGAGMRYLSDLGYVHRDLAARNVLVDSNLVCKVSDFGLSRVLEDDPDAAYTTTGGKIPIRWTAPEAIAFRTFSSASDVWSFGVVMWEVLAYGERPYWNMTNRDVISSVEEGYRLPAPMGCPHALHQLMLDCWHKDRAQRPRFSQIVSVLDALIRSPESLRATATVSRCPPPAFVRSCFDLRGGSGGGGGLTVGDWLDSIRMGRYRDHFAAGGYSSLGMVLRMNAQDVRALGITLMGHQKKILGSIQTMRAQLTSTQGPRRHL

[4] = molecular target: panel of more than 300 wild-type and mutant kinases (313 kinase panel) (Homo sapiens, UniProt Q9Y6E0)
[5] = molecular target: panel of more than 300 wild-type and mutant kinases (313 kinase panel) (Homo sapiens, UniProt P22607, K650E)
[6] = molecular target: panel of more than 300 wild-type and mutant kinases (313 kinase panel) (Homo sapiens, UniProt P51957)
[7] = molecular target: T2, panel of more than 300 wild-type and mutant kinases (313 kinase panel) (Homo sapiens, UniProt P36888)
T2 sequence (P36888 27-993): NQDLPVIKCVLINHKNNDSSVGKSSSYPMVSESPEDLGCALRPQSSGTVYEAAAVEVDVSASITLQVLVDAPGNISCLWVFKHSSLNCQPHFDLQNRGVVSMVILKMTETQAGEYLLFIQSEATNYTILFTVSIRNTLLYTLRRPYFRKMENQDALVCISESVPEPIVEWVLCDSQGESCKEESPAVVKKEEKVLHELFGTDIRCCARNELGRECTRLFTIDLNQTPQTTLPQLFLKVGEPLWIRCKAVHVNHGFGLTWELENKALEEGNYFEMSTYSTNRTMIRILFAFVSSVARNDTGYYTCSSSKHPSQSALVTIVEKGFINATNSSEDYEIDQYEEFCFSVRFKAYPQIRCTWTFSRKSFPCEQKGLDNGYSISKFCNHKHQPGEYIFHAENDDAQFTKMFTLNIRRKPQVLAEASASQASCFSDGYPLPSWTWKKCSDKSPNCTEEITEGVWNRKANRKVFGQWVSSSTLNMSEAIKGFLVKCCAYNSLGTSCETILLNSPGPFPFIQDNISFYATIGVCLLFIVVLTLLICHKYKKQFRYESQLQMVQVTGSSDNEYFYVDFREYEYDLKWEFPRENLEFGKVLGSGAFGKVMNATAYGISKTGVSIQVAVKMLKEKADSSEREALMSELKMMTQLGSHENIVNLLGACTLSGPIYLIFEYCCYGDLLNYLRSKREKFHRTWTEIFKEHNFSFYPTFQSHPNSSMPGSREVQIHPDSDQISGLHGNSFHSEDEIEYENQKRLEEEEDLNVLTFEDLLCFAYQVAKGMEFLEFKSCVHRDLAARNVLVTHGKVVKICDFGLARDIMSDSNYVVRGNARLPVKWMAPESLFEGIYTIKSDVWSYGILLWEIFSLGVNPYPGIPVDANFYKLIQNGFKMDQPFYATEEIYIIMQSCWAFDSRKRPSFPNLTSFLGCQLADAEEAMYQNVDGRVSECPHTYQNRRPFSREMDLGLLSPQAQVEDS

[8] = molecular target: panel of more than 300 wild-type and mutant kinases (313 kinase panel) (Homo sapiens, UniProt Q9UM73, F1174L)
[9] = molecular target: panel of more than 300 wild-type and mutant kinases (313 kinase panel) (Homo sapiens, UniProt P31751)
[10] = kinase FGFR3(K650E), compound at 1 μM
[11] = kinase ALK(F1174L), 1 μM compound

| Structure (SMILES) | %-inhibition of KIT ([1]; kinase KIT, compound at 1 μM) [%] | %-inhibition of PKCα ([2]; kinase PKCα, 1 μM) [%] | %-inhibition of EPHA8 ([3]; kinase EPHA8, compound at 1 μM) [%] | %-inhibition of MST3 ([4]; kinase MST3, 1 μM) [%] | %-inhibition of FGFR3(K650E) [5, 10] [%] | %-inhibition of NEK4 ([6]; kinase NEK4, 1 μM) [%] | %-inhibition of FLT3 ([7]; kinase FLT3, compound at 1 μM) [%] | %-inhibition, ALK(F1174L) [8, 11] [%] | %-inhibition, AKT2 ([9]; kinase AKT2, 1 μM compound) [%] | %-inhibition of FLT3 ([7]; 1 µM) [%] | %-inhibition of KIT ([1]; 1 µM) [%] | %-inhibition of PKCα ([2]; 1 µM) [%] | %-inhibition of EPHA8 ([3]; 1 µM) [%] | %-inhibition of MST3 ([4]; 1 µM) [%] | %-inhibition of FGFR3(K650E) ([5]; 1 µM) [%] | %-inhibition of NEK4 ([6]; 1 µM) [%] | %-inhibition, ALK(F1174L) ([8]; 1 µM) [%] | %-inhibition, AKT2 ([9]; 1 µM) [%] |
| --- | --- | --- | --- | --- | --- | --- | --- | --- | --- | --- | --- | --- | --- | --- | --- | --- | --- | --- |
| CO[C@H]1C[C@@H]2CC[C@@H](C)[C@@](O)(O2)C(=O)C(=O)N2CCCC[C@H]2C(=O)O[C@H]([C@H](C)C[C@@H]2CC[C@@H](OCCO)[C@H](OC)C2)CC(=O)[C@H](C)/C=C(\C)[C@@H](O)[C@@H](OC)C(=O)[C@H](C)C[C@H](C)/C=C/C=C/C=C/1C [everolimus] | -10 | -11 | -3.63 | 0.288 | -4.55 | 0.832 | 2.25 | -3.68 | -3.78 |  |  |  |  |  |  |  |  |  |
| CCN(CC)CCNC(=O)c1c(C)[nH]c(/C=C2\C(=O)Nc3ccc(F)cc32)c1C [sunitinib] |  |  |  |  | 96 |  |  |  |  |  |  |  |  |  |  |  |  |  |
| O=S(=O)(c1cccc2cnccc12)N1CCCNCC1 [fasudil] | -0.648 |  | -10 | -1.29 | -0.641 | -1.87 | 22 | -4 | -8 |  |  |  |  |  |  |  |  |  |
| N#CC[C@H](C1CCCC1)n1cc(-c2ncnc3[nH]ccc23)cn1 [ruxolitinib] | 3 | 8 | 0.379 | -1.15 | 16 | -6 |  |  | -3.68 | 18 |  |  |  |  |  |  |  |  |
| CC(C)(C)c1nc(-c2cccc(NS(=O)(=O)c3c(F)cccc3F)c2F)c(-c2ccnc(N)n2)s1 [dabrafenib] | 59 |  | 35 | 0.532 | 5 | 4 | 41 |  |  |  |  |  |  |  |  |  |  |  |
| C[C@@H](Oc1cc(-c2cnn(C3CCNCC3)c2)cnc1N)c1c(Cl)ccc(F)c1Cl [crizotinib] | 16 | -8.47 | 82 | 11 | 52 | 4.57 |  |  | -2.67 |  |  |  |  |  |  |  |  |  |
| COc1cc2c(Nc3ccc(Br)cc3F)ncnc2cc1OCC1CCN(C)CC1 [vandetanib] |  | -0.27 | 98 | 7 |  | -6.51 | 90 |  | -1.77 |  |  |  |  |  |  |  |  |  |
| C#Cc1cccc(Nc2ncnc3cc(OCCOC)c(OCCOC)cc23)c1 [erlotinib] |  |  |  |  |  |  |  |  |  |  | 32 | 8 | 33 | 3.69 | 80 | 0.778 | 41 | 8 |
| Cc1ccc(C(=O)Nc2ccc(CN3CCN(C)CC3)c(C(F)(F)F)c2)cc1C#Cc1cnc2cccnn12 [ponatinib] |  | -3.29 | 100 |  | 101 | 98 | 99 | 5 |  |  |  |  |  |  |  |  |  |  |
| Cc1ccc(Nc2nccc(N(C)c3ccc4c(C)n(C)nc4c3)n2)cc1S(N)(=O)=O [pazopanib] | 95 | 6 | 43 | -4.48 |  | 12 |  | 26 | -2 |  |  |  |  |  |  |  |  |  |
| Cc1nc(Nc2ncc(C(=O)Nc3c(C)cccc3Cl)s2)cc(N2CCN(CCO)CC2)n1 [dasatinib] |  |  |  | 20 |  | 1.17 |  |  |  |  |  |  |  |  |  |  |  |  |
| COc1cc(Nc2c(C#N)cnc3cc(OCCCN4CCN(C)CC4)c(OC)cc23)c(Cl)cc1Cl [bosutinib] | 23 | 54 | 99 |  |  | 84 | 77 | 71 |  |  |  |  |  |  |  |  |  | -2.57 |
| CS(=O)(=O)CCNCc1ccc(-c2ccc3ncnc(Nc4ccc(OCc5cccc(F)c5)c(Cl)c4)c3c2)o1 [lapatinib] |  | 1 |  | -1.84 | 0.415 | 0.649 | -3.74 | 1.61 | 4.61 |  | 9 |  |  |  |  |  |  |  |
